The values that follow come from patent US8138166B2, “Method to induce fatty liver in animal” (Taipei Medical University, priority 2010, dated 2012).

Test [1] concerns liver. Description: Liver histopathology (H&E staining) of SD rats fed high fat diet and injected with rotenone. The format is in vivo. The following applies: experimental group: 60% high fat diet + rotenone 2.5 mg/kg/day i.p., 8 weeks. An excerpt: (§1) SD rats are selected to use as the laboratory animals in the present embodiment. All SD rats are bred at the cages, and adequate feeds and water are given during the adaptive period and the experimental period. After the adaptive period, the SD rats are randomly divided into three groups concluding a control group, an experimental group, and a contrast group, and there are 6 SD rats in each group. In the control group, the SD rats are fed with AIN-93M diet. The SD rats in the experimental group are fed with the modified AIN-93M diet whose fat calorie is accounted for 60% of total calorie thereof, and the mitochondrial inhibitor (rotenone) is injected into the SD rats via an intraperitoneal injection once every two days. The dosage of the rotenone is about 2.5 mg/kg/day. The components of the diet and the fat percentage in the contrast group and the experimental group are the same. Normal saline is injected into the SD rats in the contrast group via the intraperitoneal injection to differentiate from the experimental group. After feeding 8 weeks, the SD rats in each group are sacrificed to collect arteria coeliaca blood and to obtain livers after perfusing 0.9% normal saline thereinto for determining the pathological analysis of the liver, the blood biochemical analysis and the liver biochemical analysis.
Livers of the SD rats in each group are all stained by H&E staining. […]

The nature of test [2]: Visceral fat weight. The format is in vivo, SD rats. Particulars: experimental group: 60% high fat diet + rotenone 2.5 mg/kg/day i.p. once every two days, 8 weeks; epididymis and perirenal adipose tissue.
Excerpt: as §1, with “analysis. […]” for “analysis.”

The nature of test [3]: Blood biochemical analysis and liver function index. Format: in vivo, SD rats. The following applies: experimental group: 60% high fat diet + rotenone i.p., 8 weeks.
Excerpt: as §1
The blood biochemical analyses of cholesterol, triglyceride, and non-esterified fatty acids are examined. The liver function indexes of aspartate aminotransferase (AST) and alanine aminotransferase (ALT) are also analyzed.

For test [4], the system named is liver. As to the kind of experiment: Liver biochemical analysis (liver lipids, TBARS, TNF-α, hydroxyproline). The following applies: experimental group: 60% high fat diet + rotenone i.p., 8 weeks. Format: in vivo, SD rats.
Excerpt: as §1
The lipid extracts are obtained from the livers of the SD rats in each group to analyze the contents of total cholesterol, triglyceride, and non-esterified fatty acids, as shown below Table 2.
Additionally, if oxidative stress, such as reactive oxygen species (ROS), is increased in vivo, lipid peroxides may be increased. Because the half life of the ROS is shorter than that of the lipid peroxides, the lipid peroxides, such as thiobarbituric acid-reactive-substance (TBARS), are used as the oxidative stress index. The livers of the SD rats in each group are respectively prepared to obtain homogeneous liquids for analyzing the concentration of the TBARS by a fluorophotometer. […] The concentrations of the TBARS in the control group, the experimental group and the contrast group are respectively 0.51±0.05, 2.18±0.19 and 1.15±0.09 μM/mg protein. That means in the experimental group, the oxidative stress in the livers of the SD rats is highest.
In the NAFLD progression, when high oxidative stress is existed in a liver for a long time, inflammatory cytokines, such as tumor necrosis factor-alpha (TNF-α), are increased. After the SD rats are sacrificed, the concentration of the TNF-α is determined to analyze whether the inflammatory response is induced or not. […] The concentrations of TNF-α in the control group, the experimental group, and the contrast group are respectively 13.96±1.05, 21.34±0.77, and 19.51±1.11 pg/mg protein. Following the results as set forth, the livers of rats in the experimental group have the inflammatory response. […] But, once livers are existed in high oxidative stress, the liver injuries thereof from simple steatosis to necrosis or fibrosis are performed. Therefore, the collagen index (i.e. the fibrosis index), hydroxyproline, in the livers should be determined. The concentrations of the hydroxyproline in the control group, the experimental group, and the contrast group are 3.32±1.05, 6.68±0.77, and 4.05±1.11 μg/mg protein, respectively. It indicates the concentration of the hydroxyproline in the experimental group is higher than those of in the control group and the contrast group.

Test [5] concerns NADH cytochrome c reductase (NCCR), mitochondrial complex I and III. As to the kind of experiment: NCCR activity in hepatocytes. Format: in vivo, SD rats. Particulars: experimental group: 60% high fat diet + rotenone i.p., 8 weeks.
Excerpt: as §1
(§2) Rotenone is hydrophobic, and can diffuse to organelles including mitochondria. […]

In test [6] the test system is succinate cytochrome c reductase (SCCR), mitochondrial complex II and III. Description: SCCR activity in hepatocytes. Format: in vivo, SD rats. Particulars: experimental group: 60% high fat diet + rotenone i.p., 8 weeks.
Excerpt: as §1, §2

For test [7], the system named is cytochrome c oxidase (CCO), mitochondrial complex IV. Description: CCO activity in hepatocytes. The format is in vivo, SD rats. The following applies: experimental group: 60% high fat diet + rotenone i.p., 8 weeks.
Excerpt: as §1, §2

Test [8] concerns mitochondrial complex I. As to the kind of experiment: Mitochondrial complex I activity inferred from NCCR and SCCR activity. Particulars: experimental group: 60% high fat diet + rotenone i.p., 8 weeks; combined NCCR and SCCR results. The format is in vivo, SD rats.
Excerpt: as §1, §2

SMILES strings stand for the structures.

In the case of `C=C(C)[C@H]1Cc2c(ccc3c2O[C@@H]2COc4cc(OC)c(OC)cc4[C@@H]2C3=O)O1` [rotenone], the “cell morphology (H&E staining of liver)” value in test [1] was “lipid drops and ballooning degeneration”. The visceral fat weight in test [2] worked out at 51.28±3.41 grams. In test [3], the ALT is recorded as 39.4 ± 2.61 IU/L, the AST came out at 90.1 ± 13.68 IU/L, the “Cholesterol (blood)” value came out at 73.4 ± 7.61 mg/dL and the “Triglyceride (blood)” value was 60.1 ± 10.15 mg/dL. Also, the “concentration of TNF-α” value in test [4] was 21.34±0.77 pg/mg protein. Besides, the “concentration of hydroxyproline (liver)” value in test [4] (collagen/fibrosis index) came to 6.68±0.77 μg/mg protein. In addition, the “concentration of TBARS (liver)” value in test [4] (liver homogenate, fluorophotometer) was found to be 2.18±0.19 μM/mg protein. In test [4] (liver lipid extract), the “Non-esterified fatty acids (liver)” value is 5.02 ± 0.38 µmol/g, the “Total cholesterol (liver)” value stood at 131.74 ± 5.30 mg/dL and the “Triglyceride (liver)” value was 6.78 ± 0.55 mg/dL. The NCCR activity in test [5] was 0.68 ± 0.26 nmol/cytochrome c reduced/min/mg protein. Besides, the SCCR activity in test [6] is on record as 0.51 ± 0.05 nmol/cytochrome c reduced/min/mg protein. Besides, in test [7], the CCO activity is reported as 5.57 ± 2.88 nmol/cytochrome c oxidized/min/mg protein. Besides, in test [8], the “mitochondrial complex I activity versus control group and contrast group” value is recorded as “lower”.
